Entries after “also recorded” stand apart in the source; their conditions may differ.
How the values were obtained:
[1] = tested on: healthy male and female subjects with induced transient insomnia; test: Example 2 study: tolerability; format: in vivo, human; settings: single oral doses 20, 50 and 100 mg
Description: (§1) A multi-center, randomized, double-blind, placebo-controlled, parallel-group study was conducted to investigate the efficacy and safety of single oral doses of VEC-162 (20, 50, and 100 mg) and matching placebo in healthy male and female subjects with induced transient insomnia. Approximately four hundred subjects were randomized in approximately a 1:1:1:1 ratio to the treatment groups.
(§2) In general, a screening period began 14 to 35 days prior to the start of the evaluation period, which was Day 1. Prior to Day 1, subjects were asked to increase their sleep time to 9 hours per night. Drug, or placebo, was administered on Night 1, approximately 0.5 hour prior to lights off.

[2] = tested on: healthy male and female subjects with induced transient insomnia; test: Example 2 study of single oral doses in induced transient insomnia: polysomnography; format: in vivo, human
Description: as §1, §2
The primary efficacy variable was LPS. LPS is defined as the length of time elapsed between lights off and onset of persistent sleep. In this trial, persistent sleep is defined as the point at which 10 minutes of uninterrupted sleep has begun. Sleep was determined on the basis of polysomnography (PSG).
Secondary efficacy parameters included the following: • Wake After Sleep Onset (WASO): WASO is defined as the time spent awake between onset of sleep and Lights On during Night 1, determined by PSG. • Latency to Non-Awake (LNA): LNA is defined as the number of minutes to reach any stage of sleep. • Total Sleep Time (TST): TST is defined as the number of minutes spent asleep during the entire time in bed.

[3] = 50 mg; cited from earlier work
[4] = tested on: elderly patients with primary insomnia; settings: 28-day Phase II study; cited from earlier work
[5] = tested on: preclinical models of acute phase-shifting and chronic re-entrainment; settings: cited from earlier work
[6] = tested on: healthy volunteers; settings: cited from earlier work
[7] = Example 1 clinical trial: exposure (Cmax, AUC); format: in vivo, human
Description: (§3) A clinical trial was conducted to assess the safety of MA-1 as well as to determine the ability of MA-1 to shift the sleep/wake cycle following a 5-hour advance in bedtime. The study was a randomized, double-blind, parallel group, placebo-controlled study. It consisted of a 2-4-week outpatient screening period followed by an 8-day inpatient stay. After acclimating to the sleep lab, bedtime was advanced by 5 hours. The primary objectives of this study were to investigate the exposure-response to MA-1 on advancement of circadian release of endogenous melatonin rhythm as measured by dim light melatonin onset (DLMO, a biomarker of the sleep-wake cycle), to investigate the exposure-response to MA-1 on mean sleep efficiency parameters as measured by PSG, to investigate the exposure-response to MA-1 on objective neurobehavioral performance lapses during scheduled work-time as measured by computerized continuous performance testing, and to assess the safety and tolerability of MA-1. Forty-five healthy volunteers, men and women aged 18-50, were enrolled into this study. Thirty-nine subjects were randomized.
The differences in DLMO25% between the endpoint day (Nights 4, 5 and 6) and baseline (Night 3) were analyzed by comparing pairwise each dose group to placebo using a linear one-way analysis of variance (ANOVA) model using in SAS® (SAS® Institute, Cary, North Carolina). Means were calculated using the LS Means method in SAS®. Standard deviations were calculated using the Statistical Summary function in SAS®. Other statistical tests were also presented in graphics. These included: linear regression of response vs. exposure (dose, AUC, or Cmax), Kendall-tau nonparametric regression, and Spearman nonparametric regression.

[8] = Solubility; format: physicochemical
[9] = target: T1, MT2R melatonin receptor (Homo sapiens, UniProt P49286); settings: cited from earlier work
T1 sequence (P49286 1-362): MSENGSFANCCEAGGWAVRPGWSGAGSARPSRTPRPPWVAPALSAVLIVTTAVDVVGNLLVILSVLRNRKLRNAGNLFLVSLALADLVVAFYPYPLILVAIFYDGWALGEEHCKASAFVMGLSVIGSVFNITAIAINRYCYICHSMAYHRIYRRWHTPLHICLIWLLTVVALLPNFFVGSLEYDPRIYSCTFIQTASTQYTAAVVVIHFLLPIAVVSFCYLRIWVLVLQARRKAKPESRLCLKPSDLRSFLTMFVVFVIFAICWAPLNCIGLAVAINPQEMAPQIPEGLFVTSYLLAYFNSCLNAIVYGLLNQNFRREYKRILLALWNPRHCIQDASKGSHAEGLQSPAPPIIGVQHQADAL

[10] = target: MT1R melatonin receptor (Homo sapiens, UniProt P48039); settings: cited from earlier work
[11] = tested on: healthy volunteers; test: Example 1 clinical trial, 5-hour advance in bedtime: dim light melatonin onset (DLMO) from plasma melatonin; format: in vivo, human
Description: as §3
The study was designed to assess the safety and efficacy of four oral doses of MA-1 (10 mg, 20 mg, 50 mg and 100 mg) compared to matching placebo on circadian phase shift, sleep parameters during the major sleep episode, and subject alertness. After written informed consent was signed, subjects that met the inclusion/exclusion criteria at screening and baseline were enrolled into the 8-day in-patient portion of the study. All in-patient assessments were conducted in a time-isolation sleep lab in which no time cues were available to subjects. During the first three nights, subjects were given placebo 30 minutes prior to bedtime (11:00 PM) in a single-blind fashion. Baseline assessments for the efficacy parameters were measured during this period. At 5:00 PM on day 3, subjects started a 19 hour Pre-constant posture (CP) segment during which time the subjects remained seated in a semi-recumbent position and blood samples were collected approximately every hour from 7:00 AM to 12:00 PM. The purpose of the pre-CP segment is to provide a measure of each subject's circadian phase before the start of the night shift segment. On day 4, subjects were randomized to once daily treatment in one of the five treatment groups. In addition, subject sleep-wake routines were advanced 5 hours, such that subjects were required to sleep from approximately 6:00 PM-2:00 AM. […] Safety was assessed throughout the study, at the end of study (EOS) visit on day 8, and at the Follow-up visit. […]
To assess circadian sleep-wake cycles in the study, plasma melatonin levels were assessed. […] To assess the effects of MA-1 on the sleep-wake cycles, DLMO was monitored in subjects before and after treatment. […]

[12] = tested on: healthy volunteers; test: Example 1 clinical trial, 5-hour advance in bedtime: polysomnography (sleep efficiency, sleep latency, WASO, sleep architecture); settings: human, in vivo
Description: as §3, with “Thirty-nine subjects were randomized.” left out
The study was designed to assess the safety and efficacy of four oral doses of MA-1 (10 mg, 20 mg, 50 mg and 100 mg) compared to matching placebo on circadian phase shift, sleep parameters during the major sleep episode, and subject alertness. […] Baseline assessments for the efficacy parameters were measured during this period. […]

Chain of MT1R melatonin receptor (P48039 whole entry): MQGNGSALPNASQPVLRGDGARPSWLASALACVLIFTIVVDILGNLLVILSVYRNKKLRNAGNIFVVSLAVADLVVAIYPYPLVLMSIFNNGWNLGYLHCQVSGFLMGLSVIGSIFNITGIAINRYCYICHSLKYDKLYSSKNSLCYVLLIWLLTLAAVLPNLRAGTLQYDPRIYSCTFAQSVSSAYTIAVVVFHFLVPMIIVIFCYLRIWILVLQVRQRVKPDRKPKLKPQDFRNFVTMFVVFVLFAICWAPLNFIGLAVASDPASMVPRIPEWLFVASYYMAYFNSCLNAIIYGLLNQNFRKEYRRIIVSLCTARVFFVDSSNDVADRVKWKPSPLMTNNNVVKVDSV

For CCC(=O)NC[C@@H]1C[C@H]1c1cccc2c1CCO2 [MA-1, (1R-trans)-N-[[2-(2,3-dihydro-4-benzofuranyl)cyclopropyl]methyl]propanamide], the Tolerability [1] was “well-tolerated at all doses”, the “Efficacy compared with 100 mg” value ([2]; 20 mg single oral dose) was “comparable or superior to 100 mg” and the “Efficacy compared with 100 mg” value ([2]; 50 mg single oral dose) was “more efficacious than 100 mg”. The “Shift of circadian rhythms” value [3] was “consistently shifted circadian rhythms”, the “Sleep latency and number of nocturnal awakenings versus placebo” value [4] was “did not differentiate from placebo” and the Chronobiotic activity [5] was “potent chronobiotic activity”. The “Tolerability, multiple doses” value ([6]; multiple doses up to 150 mg, up to 28 days) was “safety and tolerability of MA-1 at doses up to 150 mg has been demonstrated; also recorded: well-tolerated”, the “Tolerability, single doses” value ([6]; single oral doses up to 300 mg, healthy volunteers) was “safe and well tolerated” and the “Exposure levels: effect of covariates” value ([7]; human, in vivo) was “not affected by age, weight, height, gender, creatinine clearance, or ALT baseline levels”. The AUC versus dose ([7]; oral doses 10-100 mg) was “increased approximately proportional to dose”, the Cmax versus dose ([7]; oral doses 10-100 mg) was “increased in a manner approximately proportional to the dose” and the “Effect of pH on aqueous solubility” value [8] was “practically unaffected by pH”. For the same compound, the “Agonist activity at MT2R” value [9] was “specific and potent agonist”, the “Agonist activity at MT1R” value [10] was “specific and potent agonist” and the “Change in DLMO25%, LOQ5 between Night 4 and Night 3” value (“Change in DLMO25%” below) ([11]; 10 mg oral, N = 8, mean) was 0.18 h. For the same compound, the “Change in DLMO25%” value ([11]; 20 mg oral, N = 7, mean) was -1.14 h, the “Change in DLMO25%” value ([11]; 50 mg oral, N = 4, mean) was -0.50 h and the “Change in DLMO25%” value ([11]; 100 mg oral, N = 5, mean ± SD) was -2.74 ± 1.95 h. The “Percentage of time in each sleep stage between Night 4 and Night 2” value [12] was “did not change”.
